Experimental data reported in patent publication US10766884B2 (Pfizer Inc., priority 2018, dated 2020).

Key:
CDK4/Cyclin D1 = CDK4/Cyclin D1 (Homo sapiens (Human), UniProt P11802); test: CDK4/Cyclin D1 mobility shift assay; format: biochemical; settings: activated CDK4/Cyclin D1, 3.5 mM ATP, Morrison fit; read-out: CDK4D1 Ki
Method: (§1) The purpose CDK4/Cyclin D1 assay is to evaluate the inhibition (% inhibition, Kiapp and Ki values) in the presence of small molecule inhibitors by using a fluorescence based microfluidic mobility shift assay. […] The mobility shift assay electrophoretically separates the fluorescently labeled peptides (substrate and phosphorylated product) following the kinase reaction. Both substrate and product are measured and the ratio of these values is used to generate % Conversion of substrate to product by the LabChip EZ Reader.
The reaction was stopped after 195 minutes by the addition of 50 μL of 30 mM EDTA. Ki determinations were made from a plot of the fractional velocity as a function of inhibitor concentration fit to the Morrison equation with the enzyme concentration as a variable.
(§2) For CDK4 and CDK6 mobility shift assays, see also Morrison, J. F. (1969) Kinetics of the reversible inhibition of enzyme-catalysed reactions by tight-binding inhibitors, Biochimica et biophysica acta 185, 269-286; and Murphy, D. J. (2004) Determination of accurate KI values for tight-binding enzyme inhibitors: an in silico study of experimental error and assay design, Analytical biochemistry 327, 61-67.

CDK6/Cyclin D3 = CDK6/Cyclin D3 (Homo sapiens (Human), UniProt Q00534); test: CDK6/Cyclin D3 mobility shift assay; format: biochemical; settings: activated CDK6/Cyclin D3, 3.5 mM ATP, Morrison fit; read-out: CDK6_D3 Ki
Method: as §1, with “of the CDK6/Cyclin D3” for “CDK4/Cyclin D1”, “conversion” for “Conversion”
The reaction was stopped after 95 minutes by the addition of 50 μL of 30 mM EDTA. Ki determinations were made from a plot of the fractional velocity as a function of inhibitor concentration fit to the Morrison equation with the enzyme concentration as a variable.
as §2

CDK4 = CDK4 (Homo sapiens (Human), UniProt P11802); test: Phospho-Serine 795 Rb ELISA assay in JEKO-1 cells; format: cell-based; settings: overnight treatment, phospho-Rb S795, read-out: CDK4 pRB S795 ELISA JEKO-1 cells IC50
Method: (§3) JEKO-1 or MV4-11 cells were seeded at 15,000 or 20,000 cells per well, respectively, in 100 μL growth media and allowed to incubate at 37° C. with 5% CO2 overnight. The following day, compounds were serially diluted from a 10 mM top dose for an 11-point 3-fold dilution curve in DMSO. Compounds were intermediately diluted 1:200 into growth media prior to diluting 1:5 on cells for final concentration 10 μM to 0.1 nM in 0.1% DMSO on cells. JEKO-1 and MV4-11 cells were treated were treated overnight, at 37° C. with 5% CO2. Cells were lysed in 100 μL/well CST lysis buffer on ice and transferred to pre-coated and blocked anti-phospho-Ser795 Rb ELISA plates for overnight incubation at 4° C. Plates were washed to remove residual, unbound cellular proteins and total Rb detection antibody added for 90 minutes at 37° C. Following wash to remove unbound total Rb antibody, the HRP tagged antibody was allowed to bind for 30 minutes at 37° C. Following wash to remove unbound HRP antibody, Glo Substrate Reagent was added and incubated protected from light for 5 to 10 minutes. Plates were read in luminescence mode and IC50 values calculated.

CDK6 = CDK6 (Homo sapiens (Human), UniProt Q00534); test: Phospho-Serine 795 Rb ELISA assay in MV4-11 cells; format: cell-based; settings: overnight treatment, phospho-Rb S795, read-out: CDK6 pRB S795 ELISA MV4-11 cells IC50
Method: as §3

CDK4/Cyclin D1, sequence (P11802 whole entry): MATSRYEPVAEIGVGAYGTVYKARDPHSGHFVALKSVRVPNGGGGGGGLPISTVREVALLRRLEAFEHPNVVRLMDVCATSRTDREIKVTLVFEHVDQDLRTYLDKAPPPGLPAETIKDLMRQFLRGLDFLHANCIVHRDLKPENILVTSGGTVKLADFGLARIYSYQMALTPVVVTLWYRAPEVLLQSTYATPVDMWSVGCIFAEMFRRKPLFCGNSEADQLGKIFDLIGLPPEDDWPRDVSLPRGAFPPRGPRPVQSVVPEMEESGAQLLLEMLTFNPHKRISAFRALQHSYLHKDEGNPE
CDK4/Cyclin D1, sequence (P24385 whole entry partner): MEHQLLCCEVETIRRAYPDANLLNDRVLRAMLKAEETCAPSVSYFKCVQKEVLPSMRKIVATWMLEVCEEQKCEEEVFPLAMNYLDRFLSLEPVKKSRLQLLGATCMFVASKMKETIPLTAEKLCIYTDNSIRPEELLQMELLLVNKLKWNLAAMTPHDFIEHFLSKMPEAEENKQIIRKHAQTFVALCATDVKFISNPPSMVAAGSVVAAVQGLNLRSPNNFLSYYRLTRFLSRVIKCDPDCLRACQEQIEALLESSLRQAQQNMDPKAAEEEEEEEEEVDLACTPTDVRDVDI
CDK4, sequence (P11802 2-303): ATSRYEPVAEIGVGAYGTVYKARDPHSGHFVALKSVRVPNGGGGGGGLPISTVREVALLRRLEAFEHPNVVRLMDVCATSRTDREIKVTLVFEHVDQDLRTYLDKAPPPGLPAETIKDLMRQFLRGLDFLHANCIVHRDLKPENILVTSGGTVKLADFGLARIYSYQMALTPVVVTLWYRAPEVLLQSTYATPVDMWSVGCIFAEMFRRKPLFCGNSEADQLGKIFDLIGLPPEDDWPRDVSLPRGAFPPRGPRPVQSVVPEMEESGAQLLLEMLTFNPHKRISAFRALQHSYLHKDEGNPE
CDK4, sequence (P24385 whole entry partner): as the sequence (P24385 whole entry partner) above
CDK6/Cyclin D3, sequence (Q00534 whole entry): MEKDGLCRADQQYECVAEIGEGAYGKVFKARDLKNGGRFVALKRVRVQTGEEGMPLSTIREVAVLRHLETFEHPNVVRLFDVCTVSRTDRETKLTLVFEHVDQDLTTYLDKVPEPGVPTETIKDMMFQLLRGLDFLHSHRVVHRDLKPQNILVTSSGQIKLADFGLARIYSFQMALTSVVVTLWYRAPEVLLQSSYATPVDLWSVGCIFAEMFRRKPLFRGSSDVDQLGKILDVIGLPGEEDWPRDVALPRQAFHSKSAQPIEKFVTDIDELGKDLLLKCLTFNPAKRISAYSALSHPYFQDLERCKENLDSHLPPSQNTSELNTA
CDK6/Cyclin D3, sequence (P30281 whole entry partner): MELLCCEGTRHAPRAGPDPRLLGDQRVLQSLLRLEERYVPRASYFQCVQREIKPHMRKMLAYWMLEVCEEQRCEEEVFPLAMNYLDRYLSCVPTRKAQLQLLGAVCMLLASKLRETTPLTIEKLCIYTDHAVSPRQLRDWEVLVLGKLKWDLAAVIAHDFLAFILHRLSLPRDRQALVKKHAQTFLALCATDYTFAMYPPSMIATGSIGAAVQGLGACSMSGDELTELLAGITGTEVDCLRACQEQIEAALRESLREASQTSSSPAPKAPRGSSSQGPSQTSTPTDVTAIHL
CDK6, sequence (Q00534 whole entry): as the sequence (Q00534 whole entry) above
CDK6, sequence (P30281 whole entry partner): as the sequence (P30281 whole entry partner) above

Row | SMILES | Ki (CDK4/Cyclin D1) [nM] | Ki (CDK6/Cyclin D3) [nM] | IC50 (CDK4) [nM] | IC50 (CDK6) [nM]
1 | CC(C)n1c(C(C)(O)C2CC2)nc2c(F)cc(-c3nc(N[C@@H]4CCOC[C@H]4O)ncc3Cl)cc21 (single isomer, unassigned) [Example A23] | 0.5 | 11.6 | 26.5 | 84.1
2 | Cc1nc2ccc(-c3nc(N[C@@H]4CCN(S(C)(=O)=O)C[C@H]4O)ncc3F)cc2n1C(C)C [Example A76, (3R,4R)-4-({5-fluoro-4-[2-methyl-1-(propan-2-yl)-1H-benzimidazol-6-yl]pyrimidin-2-yl}amino)-1-(methanesulfonyl)piperidin-3-ol] | – | 6.3 | – | 242
3 | CC(C)n1nnc2ccc(-c3nc(N[C@@H]4CCN(S(C)(=O)=O)C[C@H]4O)ncc3Cl)cc21 [Example A84, (3R,4R)-4-({5-chloro-4-[1-(propan-2-yl)-1H-benzotriazol-6-yl]pyrimidin-2-yl}amino)-1-(methanesulfonyl)piperidin-3-ol] | 6 | 30.3 | – | –
4 | Cc1nc2ncc(-c3nc(N[C@@H]4CCN(S(C)(=O)=O)C[C@H]4O)ncc3Cl)cc2n1C(C)C [Example A85, (3R,4R)-4-({5-chloro-4-[2-methyl-1-(propan-2-yl)-1H-imidazo[4,5-b]pyridin-6-yl]pyrimidin-2-yl}amino)-1-(methanesulfonyl)piperidin-3-ol] | 9.9 | 62.8 | – | –
5 | Cc1nc2ccc(-c3nc(N[C@@H]4CCN(S(C)(=O)=O)C[C@H]4O)ncc3Cl)nc2n1C(C)C [Example A86, (3R,4R)-4-({5-chloro-4-[2-methyl-3-(propan-2-yl)-3H-imidazo[4,5-b]pyridin-5-yl]pyrimidin-2-yl}amino)-1-(methanesulfonyl)piperidin-3-ol] | 4.7 | 23.5 | – | –
6 | CS(=O)(=O)N1CC[C@@H](Nc2ncc(Cl)c(-c3cc(F)c4nc(CO)n(CC(F)(F)F)c4c3)n2)[C@H](O)C1 [Example A90, (3R,4R)-4-({5-chloro-4-[4-fluoro-2-(hydroxymethyl)-1-(2,2,2-trifluoroethyl)-1H-benzimidazol-6-yl]pyrimidin-2-yl}amino)-1-(methanesulfonyl)piperidin-3-ol] | 0.2 | 1.1 | – | –
7 | CC(C)n1c([C@@H](C)O)nc2c(F)cc(-c3nc(N[C@@H]4CCN(S(C)(=O)=O)C[C@H]4O)ncc3Cl)cc21 [Example A93, (3R,4R)-4-[(5-chloro-4-{4-fluoro-2-[(1R)-1-hydroxyethyl]-1-(propan-2-yl)-1H-benzimidazol-6-yl}pyrimidin-2-yl)amino]-1-(methanesulfonyl)piperidin-3-ol] | 0.2 | – | 34.7 | –
8 | CC(C)n1cnc2c(F)cc(-c3nc(N[C@@H]4CCN(S(C)(=O)=O)C[C@H]4O)ncc3C(F)(F)F)cc21 [Example B02, (3R,4R)-4-({4-[4-fluoro-1-(propan-2-yl)-1H-benzimidazol-6-yl]-5-(trifluoromethyl)pyrimidin-2-yl}amino)-1-(methanesulfonyl)piperidin-3-ol] | 7.3 | 27.1 | – | –
9 | CC(C)n1c([C@H](C)O)nc2c(F)cc(-c3cc(N[C@@H]4CCN(S(C)(=O)=O)C[C@H]4O)ncc3Cl)cc21 [Example D01, (3R,4R)-4-[(5-chloro-4-{4-fluoro-2-[(1S)-1-hydroxyethyl]-1-(propan-2-yl)-1H-benzimidazol-6-yl}pyridin-2-yl)amino]-1-(methanesulfonyl)piperidin-3-ol] | 0.4 | 1.7 | – | –
10 | CC(C)n1c([C@H](C)O)nc2c(F)cc(-c3cc(N[C@@H]4CCOC[C@H]4O)ncc3Cl)cc21 [Example D02, 1,5-anhydro-3-[(5-chloro-4-{4-fluoro-2-[(1S)-1-hydroxyethyl]-1-(propan-2-yl)-1H-benzimidazol-6-yl}pyridin-2-yl)amino]-2,3-dideoxy-D-threo-pentitol] | 1 | 9.3 | – | –
11 | CC(C)n1c([C@@H](C)O)nc2c(F)cc(-c3cc(N[C@@H]4CCN(S(C)(=O)=O)C[C@H]4O)ncc3Cl)cc21 [Example D03, (3R,4R)-4-[(5-chloro-4-{4-fluoro-2-[(1R)-1-hydroxyethyl]-1-(propan-2-yl)-1H-benzimidazol-6-yl}pyridin-2-yl)amino]-1-(methanesulfonyl)piperidin-3-ol] | 0.6 | 4.7 | – | –

Next, values leading:

Row | Ki (CDK4/Cyclin D1) [nM] | Ki (CDK6/Cyclin D3) [nM] | IC50 (CDK4) [nM] | IC50 (CDK6) [nM] | SMILES
12 | 5.4 | – | 821 | – | CC(C)n1c([C@@H](C)O)nc2c(F)cc(-c3nc(N[C@@H]4CCN(S(C)(=O)=O)C[C@@H]4O)ncc3Cl)cc21 (single isomer, unassigned) [Example F11]
13 | 0.5 | – | 41.3 | – | CC(O)c1nc2c(F)cc(-c3nc(N[C@@H]4CCN(S(=O)(=O)C(F)F)C[C@H]4O)ncc3Cl)cc2n1C(C)C (stereo partly drawn) [Example F10, (3R,4R)-4-({5-chloro-4-[4-flluoro-2-(1-hydroxyethyl)-1-(propan-2-yl)-1H-benzimidazol-6-yl]pyrimidin-2-yl}amino)-1-(difluoromethanesulfonyl)piperidin-3-ol]
14 | 3.6 | 30.8 | – | – | Cc1nc2c(F)cc(-c3nc(N[C@H]4CCN(S(C)(=O)=O)C[C@@H]4O)ncc3F)cc2n1C(C)C [Example F14, (3S,4S)-4-({5-fluoro-4-[4-fluoro-2-methyl-1-(propan-2-yl)-1H-benzimidazol-6-yl]pyrimidin-2-yl}amino)-1-(methanesulfonyl)piperidin-3-ol]
15 | – | 1 | 34.4 | 39.8 | CC(C)(C)n1cnc2c(F)cc(-c3nc(N[C@@H]4CCN(S(C)(=O)=O)C[C@H]4O)ncc3F)cc21 [Example F15, (3R,4R)-4-{[4-(1-tert-butyl-4-fluoro-1H-benzimidazol-6-yl)-5-fluoropyrimidin-2-yl]amino}-1-(methanesulfonyl)piperidin-3-ol]
16 | 0.9 | 10.1 | 31.7 | – | CC(C)n1cnc2c(F)cc(-c3nc(N[C@@H]4CCN(C(=O)C5COC5)C[C@H]4O)ncc3Cl)cc21 [Example F18, [(3R,4R)-4-({5-chloro-4-[4-fluoro-1-(propan-2-yl)-1H-benzimidazol-6-yl]pyrimidin-2-yl}amino)-3-hydroxypiperidin-1-yl](oxetan-3-yl)methanone]
17 | 1.5 | 11.8 | – | – | CC(C)n1cnc2c(F)cc(-c3nc(N[C@@H]4CCN(C(=O)C5(C)COC5)C[C@H]4O)ncc3Cl)cc21 [Example F19, [(3R,4R)-4-({5-chloro-4-[4-fluoro-1-(propan-2-yl)-1H-benzimidazol-6-yl]pyrimidin-2-yl}amino)-3-hydroxypiperidin-1-yl](3-methyloxetan-3-yl)methanone]
18 | 2.1 | 19.9 | – | – | CNCC(=O)N1CC[C@@H](Nc2ncc(Cl)c(-c3cc(F)c4ncn(C(C)C)c4c3)n2)[C@H](O)C1 [Example F24, 1-[(3R,4R)-4-({5-chloro-4-[4-fluoro-1-(propan-2-yl)-1H-benzimidazol-6-yl]pyrimidin-2-yl}amino)-3-hydroxypiperidin-1-yl]-2-(methylamino)ethan-1-one]
19 | 2.4 | 23 | – | – | CC(C)n1cnc2c(F)cc(-c3nc(N[C@@H]4CCN(C(=O)C[C@H](N)C(F)(F)F)C[C@H]4O)ncc3Cl)cc21 [Example F31, (3S)-3-amino-1-[(3R,4R)-4-({5-chloro-4-[4-fluoro-1-(propan-2-yl)-1H-benzimidazol-6-yl]pyrimidin-2-yl}amino)-3-hydroxypiperidin-1-yl]-4,4,4-trifluorobutan-1-one]
20 | 0.4 | 5.9 | – | – | CC(=O)c1nc2c(F)cc(-c3nc(N[C@@H]4CCN(S(C)(=O)=O)C[C@H]4O)ncc3Cl)cc2n1C(C)C [Example G01, 1-[6-(5-chloro-2-{[(3R,4R)-3-hydroxy-1-(methanesulfonyl)piperidin-4-yl]amino}pyrimidin-4-yl)-4-fluoro-1-(propan-2-yl)-1H-benzimidazol-2-yl]ethan-1-one]
